Data reported in PubChem BioAssay (NCI).
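Exposure lasted 48 hours, with cells grown in 96-well plates and compounds tested at five concentrations. TGI marks complete inhibition of growth.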

Key:
Assay in all cases: growth of human tumour cells (NCI), 48 h
[1] = system: DU-145 prostate
[2] = system: MDA-MB-435
[3] = system: HCC-2998 colon
[4] = system: SN12C renal
[5] = system: OVCAR-5 ovarian
[6] = system: RPMI-8226 leukemia
[7] = system: CCRF-CEM leukemia
[8] = system: T-47D breast
[9] = system: A498 renal
[10] = system: HOP-62 NSCLC
[11] = system: HL-60(TB) leukemia
[12] = system: NCI-H460 lung
[13] = system: M14 melanoma
[14] = system: SR leukemia
[15] = system: HOP-92 NSCLC
[16] = system: SF-295 CNS
[17] = system: ACHN renal
[18] = system: KM12 colon
[19] = system: SK-OV-3 ovarian
[20] = system: CAKI-1 renal
[21] = system: MALME-3M melanoma
[22] = system: UACC-62 melanoma
[23] = system: UO-31 renal
[24] = system: NCI-H226 lung
[25] = system: UACC-257 melanoma
[26] = system: SK-MEL-2 melanoma
[27] = system: LOX IMVI melanoma
[28] = system: HCT-116 colon
[29] = system: NCI/ADR-RES ovarian
[30] = system: 786-0 renal
[31] = system: NCI-H522 lung
[32] = system: RXF 393 renal
[33] = system: SW-620 colon
[34] = system: TK-10 renal
[35] = system: SNB-75 CNS
[36] = system: A549 NSCLC
[37] = system: MOLT-4 leukemia
[38] = system: IGROV1 ovarian
[39] = system: PC-3 prostate
[40] = system: MDA-N
[41] = system: SNB-19 CNS
[42] = system: OVCAR-4 ovarian
[43] = system: HT29 colon
[44] = system: OVCAR-8 ovarian
[45] = system: EKVX NSCLC
[46] = system: U251 CNS
[47] = system: SK-MEL-28 melanoma
[48] = system: NCI-H23 lung
[49] = system: MCF7 breast
[50] = system: MDA-MB-231 breast
[51] = system: COLO 205 colon
[52] = system: SK-MEL-5 melanoma
[53] = system: SF-268 CNS
[54] = system: BT-549 breast
[55] = system: OVCAR-3 ovarian
[56] = system: HS 578T breast
[57] = system: SF-539 CNS
[58] = system: HCT-15 colon
[59] = system: K-562 leukemia

Compound C/C(=N\Nc1nc2ccccc2s1)c1cc(C)ncn1 has a TGI [1] of 45.1 µM, a TGI [2] greater than 54.1 µM and a TGI [3] of 14.6 µM. The TGI [4] was 15.1 µM, the TGI [5] was greater than 68.2 µM and the TGI [6] was greater than 21 µM. The TGI [7] was 4.2 µM, the TGI [8] was greater than 100 µM and the TGI [9] was greater than 100 µM. It also gave a TGI [10] of 18.3 µM, a TGI [11] greater than 100 µM and a TGI [12] of 9.16 µM. It also gave a TGI [13] of 25.7 µM, a TGI [14] of 9.82 µM and a TGI [15] greater than 30.6 µM. It also gave a TGI [16] of 30.9 µM, a TGI [17] greater than 32 µM and a TGI [18] of 14.2 µM. For the same compound, the TGI [19] was greater than 35.7 µM, the TGI [20] was 6.63 µM and the TGI [21] was greater than 36.1 µM. It also gave a TGI [22] greater than 32.8 µM, a TGI [23] of 3.84 µM and a TGI [24] of 4.46 µM. It also gave a TGI [25] greater than 27.2 µM, a TGI [26] of 23 µM and a TGI [27] greater than 100 µM. The TGI [28] was greater than 27.2 µM, the TGI [29] was 4.91 µM and the TGI [30] was greater than 47.3 µM. It also gave a TGI [31] of 5.04 µM, a TGI [32] of 20 µM and a TGI [33] greater than 53.2 µM. The TGI [34] was greater than 100 µM, the TGI [35] was 15.1 µM and the TGI [36] was greater than 45.2 µM. For the same compound, the TGI [37] was 4.15 µM, the TGI [38] was 20.5 µM and the TGI [39] was 34.5 µM. It also gave a TGI [40] of 47.3 µM, a TGI [41] of 61.5 µM and a TGI [42] greater than 39.8 µM. For the same compound, the TGI [43] was greater than 34.6 µM, the TGI [44] was 4.01 µM and the TGI [45] was 17.1 µM. For the same compound, the TGI [46] was greater than 49.6 µM, the TGI [47] was greater than 55.8 µM and the TGI [48] was 15.7 µM. It also gave a TGI [49] greater than 19.4 µM, a TGI [50] of 9.47 µM and a TGI [51] of 4.71 µM. It also gave a TGI [52] of 13 µM, a TGI [53] of 3.16 µM and a TGI [54] greater than 46.3 µM. The TGI [55] was greater than 25 µM, the TGI [56] was 12.7 µM and the TGI [57] was 35 µM. The TGI [58] was 13 µM.
O=C1c2ccccc2C(=O)c2oc(Br)cc21 was tested, and the TGI [1] was 0.491 µM, the TGI [2] was 0.311 µM and the TGI [3] was 3.27 µM. For the same compound, the TGI [4] was 2.22 µM, the TGI [5] was 3.16 µM and the TGI [6] was 6.99 µM. It also gave a TGI [7] of 6.66 µM, a TGI [8] of 3.6 µM and a TGI [9] of 3.49 µM. The TGI [10] was 4.05 µM, the TGI [11] was 1.17 µM and the TGI [12] was 2.64 µM. For the same compound, the TGI [13] was 0.311 µM, the TGI [14] was 5.78 µM and the TGI [15] was 4.23 µM. The TGI [16] was 1.03 µM, the TGI [17] was 3.22 µM and the TGI [18] was 3.2 µM. For the same compound, the TGI [19] was 6.61 µM, the TGI [20] was 3.43 µM and the TGI [21] was 0.274 µM. The TGI [22] was 1.84 µM, the TGI [23] was 2.85 µM and the TGI [24] was 3.22 µM. It also gave a TGI [25] of 0.784 µM, a TGI [26] of 1.73 µM and a TGI [27] greater than 100 µM. For the same compound, the TGI [28] was 2.7 µM, the TGI [29] was 5.44 µM and the TGI [30] was 2.98 µM. For the same compound, the TGI [31] was 3.04 µM, the TGI [32] was 2.87 µM and the TGI [33] was 1.09 µM. The TGI [34] was 6.15 µM, the TGI [35] was 0.684 µM and the TGI [36] was 1.03 µM. It also gave a TGI [37] of 4.27 µM, a TGI [38] of 3.08 µM and a TGI [39] of 11.1 µM. For the same compound, the TGI [40] was 0.267 µM, the TGI [59] was 4.77 µM and the TGI [41] was 2.87 µM. The TGI [42] was 3.55 µM, the TGI [43] was 3.68 µM and the TGI [44] was 2.92 µM. The TGI [45] was 4.07 µM, the TGI [46] was 2.64 µM and the TGI [47] was 0.934 µM. For the same compound, the TGI [48] was 0.463 µM, the TGI [49] was 1.96 µM and the TGI [50] was 7.32 µM. It also gave a TGI [51] of 3.47 µM, a TGI [52] of 0.284 µM and a TGI [53] of 4.22 µM. The TGI [54] was 3.11 µM, the TGI [55] was 5.67 µM and the TGI [56] was 0.732 µM. It also gave a TGI [57] of 1.84 µM and a TGI [58] of 1.91 µM.
Work on COc1cc2oc(=O)ccc2cc1CC=C(C)C yielded a TGI [1] greater than 100 µM, a TGI [2] greater than 100 µM and a TGI [3] greater than 100 µM. The TGI [4] was greater than 100 µM, the TGI [5] was greater than 100 µM and the TGI [6] was 61 µM. It also gave a TGI [7] greater than 100 µM, a TGI [8] greater than 100 µM and a TGI [9] greater than 100 µM. The TGI [10] was greater than 100 µM, the TGI [11] was 33.1 µM and the TGI [12] was greater than 100 µM. The TGI [14] was 57.4 µM, the TGI [15] was 69 µM and the TGI [16] was greater than 100 µM. It also gave a TGI [17] greater than 100 µM, a TGI [18] greater than 100 µM and a TGI [20] greater than 100 µM. It also gave a TGI [21] greater than 100 µM, a TGI [23] of 97.9 µM and a TGI [24] of 98.6 µM. The TGI [25] was greater than 100 µM, the TGI [26] was greater than 100 µM and the TGI [27] was greater than 100 µM. The TGI [28] was greater than 100 µM, the TGI [29] was 79.3 µM and the TGI [31] was greater than 100 µM. It also gave a TGI [32] of 64.7 µM, a TGI [33] greater than 100 µM and a TGI [34] of 97.5 µM. The TGI [35] was greater than 100 µM, the TGI [36] was greater than 100 µM and the TGI [37] was greater than 100 µM. The TGI [38] was greater than 100 µM, the TGI [39] was greater than 100 µM and the TGI [40] was greater than 100 µM. For the same compound, the TGI [59] was greater than 100 µM, the TGI [41] was greater than 100 µM and the TGI [42] was greater than 100 µM. It also gave a TGI [43] of 77.7 µM, a TGI [44] greater than 100 µM and a TGI [45] greater than 100 µM. For the same compound, the TGI [46] was greater than 100 µM, the TGI [47] was greater than 100 µM and the TGI [48] was greater than 100 µM. It also gave a TGI [49] greater than 100 µM, a TGI [50] greater than 100 µM and a TGI [51] greater than 100 µM. It also gave a TGI [52] of 73.7 µM, a TGI [53] greater than 100 µM and a TGI [54] of 81 µM. For the same compound, the TGI [55] was greater than 100 µM, the TGI [56] was greater than 100 µM and the TGI [57] was greater than 100 µM.
